The structures appear in SMILES notation. Where two headings read alike, the source gives them in different places.

What all share (type): cell-based
Test [1] is described as follows: Hoechst 33342 nuclear staining (48 h read-out). In outline:
(§1)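 Adherent cells pre-spread 24 h before dosing, suspension cells dosed at seeding; compounds at 0.001 μM-10 μM final, 48 h at culture conditions. Hoechst 33342 (2-5 μg/ml) added for 30 min, then fluorescence microscopy scoring of apoptotic nuclear fraction and apoptosis-specific morphology, reported as scores A-D.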

For test [2], the system named is tumor cells. Briefly: Hoechst 33342 nuclear staining (48 h read-out). A digest of the protocol:
as §1

The nature of test [3]: MTS proliferation assay (72 h read-out). The conditions noted are these: MRC5 cells. In outline:
(§2)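 Viability was read by MTS absorbance at 492 nm after 3 h with reagent. Before that, cells plated a day earlier at 1.5×10^3–10^4 per well had been incubated with test compound at final concentrations of 0.001–10 μM for 72 h; activity is given as category scores A–D.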
A general note: Formazan colour is commonly taken as a measure of viable cells.

Test [4] relates to tumor cells. Description: MTS proliferation assay (72 h read-out). In outline:
as §2

Test [5] in a line: Mitochondrial membrane potential, JC-1 (read-out 48 h). The conditions noted are these: PBL, JC-1, 48 h. In outline:
(§3)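 Tumor cells were treated with test compounds (adherent cells after 24 h of attachment, suspension cells immediately), medium holding up to 5% DMSO. After 48 h, JC-1 (2-5 μg/ml in added medium) was applied for 30 min. Fluorescence microscopy (FITC/TRITC filters) scored the fraction of cells with dissipated mitochondrial membrane potential as categories A-D.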

Test [6] relates to tumor cells. Described as above. The conditions noted are these: JC-1, 48 h. A digest of the protocol:
as §3

Where [7] appears, read: MRC5 cells, read-out: Hoechst 33342 nuclear staining EC50, MRC5.
Where [8] appears, read: PBL, read-out: Hoechst 33342 nuclear staining EC50, PBL.
[9] abbreviates: HeLa cells, read-out: Hoechst 33342 nuclear staining EC50, HeLa.
The mark [10] stands for this setting: Jily cells, read-out: Hoechst 33342 nuclear staining EC50, Jily.
Setting [11] is: Jurkat cells, read-out: Hoechst 33342 nuclear staining EC50, Jurkat.
[12] abbreviates: HT1080 cells, read-out: MTS proliferation assay IC50, HT1080.
Setting [13] is: HeLa cells, read-out: MTS proliferation assay IC50, HeLa.
Setting [14] is: Jily cells, read-out: MTS proliferation assay IC50, Jily.
The mark [15] stands for this setting: Jurkat cells, read-out: MTS proliferation assay IC50, Jurkat.
Where [16] appears, read: HeLa cells, read-out: Mitochondrial membrane potential (read-out 48 h) HeLa.
[17] abbreviates: Jily cells, read-out: Mitochondrial membrane potential (read-out 48 h) Jily.
The mark [18] stands for this setting: Jurkat cells, read-out: Mitochondrial membrane potential (read-out 48 h) Jurkat.
Where [19] appears, read: MCF7 cells, read-out: Mitochondrial membrane potential (read-out 48 h) MCF7.

For `CCOc1ccc(C(=O)O)cc1C(=O)c1oc2ccc(Cl)cc2c1N` [Example 44], the EC50 (in test [1] (setting [7]); in test [1] (setting [8]); in the test on tumor cells [2] (setting [9]); with tumor cells [2] (setting [10]); with tumor cells [2] (setting [11]); in test [5]) was above 1000 nM each time. Also, the EC50 in the test on tumor cells [6] (setting [16]), in the test on tumor cells [6] (setting [17]), in the test on tumor cells [6] (setting [18]) and with tumor cells [6] (setting [19]) was above 1000 nM each time. The IC50 (in test [3]; with tumor cells [4] (setting [12]); in the test on tumor cells [4] (setting [13]); with tumor cells [4] (setting [14]); in the test with tumor cells [4] (setting [15])) was above 1000 nM in each case.
For `CCOc1ccccc1C(=O)c1oc2ccc(F)cc2c1N` [Example 45], the EC50 (in test [1] (setting [7]); in test [1] (setting [8]); in the test on tumor cells [2] (setting [9]); with tumor cells [2] (setting [10]); in the test on tumor cells [2] (setting [11]); in test [5]) was above 1000 nM in each case. The EC50 with tumor cells [6] (setting [16]), in the test with tumor cells [6] (setting [17]), in the test on tumor cells [6] (setting [18]) and in the test on tumor cells [6] (setting [19]) was above 1000 nM in each case. Moreover, the IC50 (in test [3]; in the test with tumor cells [4] (setting [12]); in the test with tumor cells [4] (setting [13]); in the test with tumor cells [4] (setting [14]); in the test with tumor cells [4] (setting [15])) was above 1000 nM in each case.
Turning to `CCOc1ccc(S(=O)(=O)N(C)C)cc1C(=O)c1oc2ccc(Cl)cc2c1N` [Example 46], the EC50 (in test [1] (setting [7]); in test [1] (setting [8]); with tumor cells [2] (setting [9]); with tumor cells [2] (setting [10]); in the test with tumor cells [2] (setting [11]); in test [5]) was above 1000 nM in each case. Further, the EC50 in the test on tumor cells [6] (setting [16]), with tumor cells [6] (setting [17]), in the test with tumor cells [6] (setting [18]) and in the test on tumor cells [6] (setting [19]) was above 1000 nM throughout. Moreover, the IC50 (in test [3]; with tumor cells [4] (setting [12]); with tumor cells [4] (setting [13]); with tumor cells [4] (setting [14]); in the test on tumor cells [4] (setting [15])) was above 1000 nM each time.
As for `CCOc1ccccc1C(=O)c1oc2ccc(OC)cc2c1N` [Example 47], the EC50 in test [1] (setting [7]) was 10 to 100 nM; in test [1] (setting [8]) it was above 1000 nM; with tumor cells [2] (setting [9]), 10 to 100 nM; in the test with tumor cells [2] (setting [10]), below 10 nM; in the test with tumor cells [2] (setting [11]), below 10 nM; in test [5] it was above 1000 nM. For the same compound, the EC50 in the test on tumor cells [6] (setting [16]) is 10 to 100 nM; in the test with tumor cells [6] (setting [17]), 10 to 100 nM; in the test with tumor cells [6] (setting [18]) it was 10 to 100 nM; in the test on tumor cells [6] (setting [19]), above 1000 nM. Further, the IC50 in test [3] was 10 to 100 nM; in the test on tumor cells [4] (setting [12]), below 10 nM; in the test on tumor cells [4] (setting [13]) it was 10 to 100 nM; in the test on tumor cells [4] (setting [14]), below 10 nM; in the test with tumor cells [4] (setting [15]) it was below 10 nM.
Regarding `CCOc1ccc(F)cc1C(=O)c1oc2ccc(OC)cc2c1NC(=O)OC` [Example 49], the EC50 in test [1] (setting [7]) is above 1000 nM; in test [1] (setting [8]), above 1000 nM; in the test on tumor cells [2] (setting [9]) it was 100 to 1000 nM; in the test on tumor cells [2] (setting [10]), 10 to 100 nM; in the test on tumor cells [2] (setting [11]), 10 to 100 nM; in test [5], above 1000 nM. Moreover, the EC50 in the test with tumor cells [6] (setting [16]) was 100 to 1000 nM; in the test with tumor cells [6] (setting [17]), 10 to 100 nM; with tumor cells [6] (setting [18]), 10 to 100 nM; in the test on tumor cells [6] (setting [19]), above 1000 nM. Besides, the IC50 was 10 to 100 nM in test [3]; 10 to 100 nM with tumor cells [4] (setting [12]); 100 to 1000 nM in the test with tumor cells [4] (setting [13]); 10 to 100 nM in the test on tumor cells [4] (setting [14]); 10 to 100 nM in the test with tumor cells [4] (setting [15]).
Regarding `CCOc1ccc(F)cc1C(=O)c1oc2ccc(OC)cc2c1NS(=O)(=O)N(C)C` [Example 50], the EC50 is above 1000 nM in test [1] (setting [7]); above 1000 nM in test [1] (setting [8]); above 1000 nM in the test on tumor cells [2] (setting [9]); 100 to 1000 nM in the test with tumor cells [2] (setting [10]); 100 to 1000 nM in the test with tumor cells [2] (setting [11]); above 1000 nM in test [5]. Also, the EC50 in the test with tumor cells [6] (setting [16]) is above 1000 nM; with tumor cells [6] (setting [17]), above 1000 nM; in the test on tumor cells [6] (setting [18]) it was 100 to 1000 nM; with tumor cells [6] (setting [19]), above 1000 nM. Moreover, the IC50 in test [3] was above 1000 nM; in the test with tumor cells [4] (setting [12]) it was above 1000 nM; in the test on tumor cells [4] (setting [13]), above 1000 nM; in the test on tumor cells [4] (setting [14]), 100 to 1000 nM; in the test on tumor cells [4] (setting [15]), 100 to 1000 nM.

The values are drawn from US8486996B2, “Aroylfuranes and aroylthiophenes” (Basilea Pharmaceutica AG, priority 2006, dated 2013).
